# Assays:
# Assay in all cases: Antibacterial activity MIC, two-fold agar dilution
# Assay type in all cases: cell-based
# [1] = test system: Acinetobacter calcoaceticus ATCC 15473; settings: ATCC15473; Acinetobacter calcoaceticus ATCC 15473; Muller-Hinton agar, 37° C., 20 hours; read-out: Antibacterial Activity MIC
# Description: (§1) These MIC values were taken by employing a two-fold dilution method: that is, two-fold serial dilutions of each of the test compounds were made and dispersed in a Muller-Hinton agar medium; 2 μl of the standard test strain which had the 10^7 CFU(Colony Forming Unit) per ml was inoculated on the medium; and these were incubated at 37° C. for 20 hours. The results of the MIC tests are shown Table 1.
# [2] = test system: Bacillus cereus ATCC 11778; settings: ATCC11778; Bacillus cereus ATCC 11778; Muller-Hinton agar, 37° C., 20 hours; read-out: Antibacterial Activity MIC
# Description: as §1
# [3] = test system: Bacillus megaterium ATCC 9885; settings: Priestia megaterium, ATCC9885; Bacillus megaterium ATCC 9885; Muller-Hinton agar, 37° C., 20 hours; read-out: Antibacterial Activity MIC
# Description: as §1
# [4] = test system: Citrobacter freundii ATCC 8090; settings: ATCC8090; Citrobacter freundii ATCC 8090; Muller-Hinton agar, 37° C., 20 hours; read-out: Antibacterial Activity MIC
# Description: as §1
# [5] = test system: Enterobacter aerogenes ATCC 29751; settings: Klebsiella aerogenes, ATCC29751; Enterobacter aerogenes ATCC 29751; Muller-Hinton agar, 37° C., 20 hours; read-out: Antibacterial Activity MIC
# Description: as §1
# [6] = test system: Enterobacter cloacae ATCC 27508; settings: ATCC27508; Enterobacter cloacae ATCC 27508; Muller-Hinton agar, 37° C., 20 hours; read-out: Antibacterial Activity MIC
# Description: as §1
# [7] = test system: Escherichia coli ATCC 10536; settings: ATCC10536, Muller-Hinton agar, 37° C., 20 hours
# Description: as §1
# [8] = test system: Escherichia coli ATCC 25922; settings: ATCC25922, Muller-Hinton agar, 37° C., 20 hours
# Description: as §1
# [9] = test system: Klebsiella pneumoniae ATCC 10031; settings: ATCC10031; Klebsiella pneumoniae ATCC 10031; Muller-Hinton agar, 37° C., 20 hours; read-out: Antibacterial Activity MIC
# Description: as §1
# [10] = test system: Micrococcus luteus ATCC 9341; settings: ATCC9341; Micrococcus luteus ATCC 9341; Muller-Hinton agar, 37° C., 20 hours; read-out: Antibacterial Activity MIC
# Description: as §1
# [11] = test system: Morganella morganii ATCC 8076h; settings: ATCC8076H, Muller-Hinton agar, 37° C., 20 hours
# Description: as §1
# [12] = test system: Proteus mirabilis ATCC 25933; settings: ATCC25933; Proteus mirabilis ATCC 25933; Muller-Hinton agar, 37° C., 20 hours; read-out: Antibacterial Activity MIC
# Description: as §1
# [13] = test system: Proteus vulgaris ATCC 6059; settings: ATCC6059; Proteus vulgaris ATCC 6059; Muller-Hinton agar, 37° C., 20 hours; read-out: Antibacterial Activity MIC
# Description: as §1
# [14] = test system: Providencia rettgeri ATCC 9250; settings: ATCC9250, Muller-Hinton agar, 37° C., 20 hours
# Description: as §1
# [15] = test system: Pseudomonas aeruginosa ATCC 10145; settings: ATCC10145; Pseudomonas aeruginosa ATCC 10145; Muller-Hinton agar, 37° C., 20 hours; read-out: Antibacterial Activity MIC
# Description: as §1
# [16] = test system: Pseudomonas aeruginosa ATCC 25619; settings: ATCC25619; Pseudomonas aeruginosa ATCC 25619; Muller-Hinton agar, 37° C., 20 hours; read-out: Antibacterial Activity MIC
# Description: as §1
# [17] = test system: Pseudomonas aeruginosa ATCC 27853; settings: ATCC27853; Pseudomonas aeruginosa ATCC 27853; Muller-Hinton agar, 37° C., 20 hours; read-out: Antibacterial Activity MIC
# Description: as §1
# [18] = test system: Salmonella typhimurium ATCC 14028; settings: Salmonella enterica; Salmonella typhimurium ATCC 14028; Muller-Hinton agar, 37° C., 20 hours; read-out: Antibacterial Activity MIC
# Description: as §1
# [19] = test system: Serratia marcescens ATCC 27117; settings: ATCC27117; Serratia marcescens ATCC 27117; Muller-Hinton agar, 37° C., 20 hours; read-out: Antibacterial Activity MIC
# Description: as §1
# [20] = test system: Shigella flexneri ATCC 11836; settings: ATCC11836, Muller-Hinton agar, 37° C., 20 hours
# Description: as §1
# [21] = test system: Shigella sonnei ATCC 11060; settings: ATCC11060, Muller-Hinton agar, 37° C., 20 hours
# Description: as §1
# [22] = test system: Staphylococcus aureus ATCC 10537; settings: ATCC10537; Staphylococcus aureus ATCC 10537; Muller-Hinton agar, 37° C., 20 hours; read-out: Antibacterial Activity MIC
# Description: as §1
# [23] = test system: Staphylococcus aureus ATCC 6538p; settings: ATCC6538P; Staphylococcus aureus ATCC 6538p; Muller-Hinton agar, 37° C., 20 hours; read-out: Antibacterial Activity MIC
# Description: as §1
# [24] = test system: Staphylococcus epidermidis ATCC 12228; settings: ATCC12228; Staphylococcus epidermidis ATCC 12228; Muller-Hinton agar, 37° C., 20 hours; read-out: Antibacterial Activity MIC
# Description: as §1
# [25] = test system: Streptococcus faecalis ATCC 29212; settings: Enterococcus faecalis, ATCC29212; Streptococcus faecalis ATCC 29212; Muller-Hinton agar, 37° C., 20 hours; read-out: Antibacterial Activity MIC
# Description: as §1
Structure (SMILES),MIC [1],MIC [2],MIC [3],MIC [4],MIC [5],MIC [6],MIC [7],MIC [8],MIC [9],MIC [10],MIC [11],MIC [12],MIC [13],MIC [14],MIC [15],MIC [16],MIC [17],MIC [18],MIC [19],MIC [20],other results
"C[n+]1c(N)cc(SCC2=C(C(=O)[O-])N3C(=O)[C@@H](NC(=O)/C(=N\OC(C)(C)C(=O)O)c4csc(N)n4)[C@H]3SC2)nc1N [Compound I-12, (6R,7R)-7-[(Z)-2-(2-aminothiazol-4-yl)-2-(carboxyprop-2-oxyimino)acetamido]-3-(2,6-diamino-1-methylpyrimidinium-4-yl)thiomethyl-3-cephem-4-carboxylate]",8 µg/mL,128 µg/mL,0.25 µg/mL,0.13 µg/mL,2 µg/mL,0.031 µg/mL,0.25 µg/mL,0.25 µg/mL,0.063 µg/mL,0.5 µg/mL,≤ 0.008 µg/mL,0.13 µg/mL,0.25 µg/mL,≤ 0.008 µg/mL,2 µg/mL,1 µg/mL,1 µg/mL,0.25 µg/mL,0.5 µg/mL,0.063 µg/mL,MIC [21]: 0.25 µg/mL; MIC [22]: 4 µg/mL; MIC [23]: 8 µg/mL; MIC [24]: 4 µg/mL; MIC [25]: > 128 µg/mL
"CC[n+]1c(N)nc(N)nc1SCC1=C(C(=O)[O-])N2C(=O)C(NC(=O)/C(=N\OC(C)(C)C(=O)O)c3csc(N)n3)[C@H]2SC1 (stereo partly drawn) [Compound I-24, 7-[(Z)-2-(2-aminothiazol-4-yl) -2-(2-carboxyprop-2-oxyimino)acetamido]-3-(4,6-diamino-1-ethyl-1,3,5-triazinium-2-yl)thiomethyl-3-cephem-4-carboxylate]",4 µg/mL,> 128 µg/mL,0.5 µg/mL,0.13 µg/mL,2 µg/mL,0.031 µg/mL,0.13 µg/mL,0.063 µg/mL,0.063 µg/mL,1 µg/mL,≤ 0.008 µg/mL,0.063 µg/mL,0.063 µg/mL,≤ 0.008 µg/mL,2 µg/mL,1 µg/mL,1 µg/mL,0.13 µg/mL,0.13 µg/mL,0.063 µg/mL,MIC [21]: 0.063 µg/mL; MIC [22]: 2 µg/mL; MIC [23]: 4 µg/mL; MIC [24]: 2 µg/mL; MIC [25]: > 128 µg/mL
"CCO/N=C(\C(=O)N[C@@H]1C(=O)N2C(C(=O)[O-])=C(CSc3cc(N)nc(N)[n+]3C)CS[C@H]12)c1nsc(N)n1 [Compound I-5, (6R,7R)-7-[(Z)-2-(5-amino-1,2,4-thiadiazol-3-yl)-2-(ethoxyimino)acetamido]-3-(2,6-diamino-3-methylpyrimidinium-4-yl)thiomethyl-3-cephem-4-carboxylate]",8 µg/mL,64 µg/mL,0.13 µg/mL,0.25 µg/mL,0.5 µg/mL,0.016 µg/mL,0.13 µg/mL,0.13 µg/mL,0.016 µg/mL,0.031 µg/mL,≤ 0.008 µg/mL,0.061 µg/mL,0.031 µg/mL,≤ 0.008 µg/mL,32 µg/mL,2 µg/mL,16 µg/mL,0.5 µg/mL,0.5 µg/mL,0.063 µg/mL,MIC [21]: 0.25 µg/mL; MIC [22]: 1 µg/mL; MIC [23]: 2 µg/mL; MIC [24]: 0.5 µg/mL; MIC [25]: > 128 µg/mL
"CO/N=C(\C(=O)N[C@@H]1C(=O)N2C(C(=O)[O-])=C(CSc3cc(N)nc(N)[n+]3C)CS[C@H]12)c1csc(N)n1 [Compound I-7, (6R,7R)-7-[(Z)-2-(2-aminothiazol-4-yl)-2-(methoxyimino)acetamido]-3-(2,6-diamino-3-methylpyrimidinium-4-yl)thiomethyl-3-cephem-4-carboxylate]",8 µg/mL,64 µg/mL,0.13 µg/mL,0.25 µg/mL,0.5 µg/mL,0.016 µg/mL,0.13 µg/mL,0.13 µg/mL,0.016 µg/mL,0.063 µg/mL,0.016 µg/mL,0.031 µg/mL,0.063 µg/mL,≤ 0.008 µg/mL,64 µg/mL,2 µg/mL,32 µg/mL,1 µg/mL,0.5 µg/mL,0.063 µg/mL,MIC [21]: 0.5 µg/mL; MIC [22]: 1 µg/mL; MIC [23]: 2 µg/mL; MIC [24]: 0.5 µg/mL; MIC [25]: > 128 µg/mL
"C#CCO/N=C(\C(=O)N[C@@H]1C(=O)N2C(C(=O)[O-])=C(CSc3cc(N)[n+](C)c(N)n3)CS[C@H]12)c1csc(N)n1 [Compound I-14, (6R,7R)-7-[(Z)-2-(2-aminothiazol-4-yl)-2-(2-propyn-1-oxyimino)acetamido]-3-(2,6-diamino-1-methylpyrimidinium-4-yl)thiomethyl-3-cephem-4-carboxylate]",8 µg/mL,64 µg/mL,0.25 µg/mL,0.25 µg/mL,0.5 µg/mL,0.016 µg/mL,0.5 µg/mL,0.25 µg/mL,0.016 µg/mL,0.031 µg/mL,0.016 µg/mL,1 µg/mL,1 µg/mL,≤ 0.008 µg/mL,8 µg/mL,1 µg/mL,4 µg/mL,0.25 µg/mL,0.5 µg/mL,0.063 µg/mL,MIC [21]: 0.5 µg/mL; MIC [22]: 0.5 µg/mL; MIC [23]: 0.5 µg/mL; MIC [24]: 0.25 µg/mL; MIC [25]: 16 µg/mL
C[n+]1c(SCC2=C(C(=O)[O-])N3C(=O)[C@@H](NC(=O)/C(=N\OC(C)(C)C(=O)O)c4csc(N)n4)[C@H]3SC2)cc(N)nc1N [Compound I-1],4 µg/mL,128 µg/mL,0.25 µg/mL,0.13 µg/mL,2 µg/mL,0.016 µg/mL,0.13 µg/mL,0.13 µg/mL,0.031 µg/mL,0.5 µg/mL,≤ 0.008 µg/mL,0.31 µg/mL,0.31 µg/mL,≤ 0.008 µg/mL,2 µg/mL,1 µg/mL,1 µg/mL,0.5 µg/mL,0.13 µg/mL,0.031 µg/mL,MIC [21]: 0.25 µg/mL; MIC [22]: 4 µg/mL; MIC [23]: 8 µg/mL; MIC [24]: 2 µg/mL; MIC [25]: > 128 µg/mL
